Among the data in patent publication US20240269298A1, “PHOSPHONYL DERIVATIVE, AND COMPOSITION AND PHARMACEUTICAL APPLICATION THEREOF” (XIZANG HAISCO PHARMACEUTICAL CO., LTD., priority 2021, published 2024) are IC50, DC50 and AUC(0-t) values, retold here.

Like-named read-outs stand apart in the source and are kept apart here.

Series [1] concerns NCI-H1975 (EGFR-L858R-T790M) cells. Description: Inhibitory activity on proliferation of NCI-H1975 (EGFR-L858R-T790M) cells (CTG, 72 h). It counts as cell-based. As to conditions: Homo sapiens. In outline: (§1)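 Cells plated at 1000/well (NCI-H1975, RPMI1640+10% FBS) or 3000/well (A431, DMEM+10% FBS), dosed next day with compounds (0.1% DMSO final) for 72 h at 37 °C, 5% CO2. Viability by CTG luminescence, normalised to vehicle control; IC50 from nonlinear-regression dose-survival curves.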

Series [2] addresses T1, EGFR protein in NCI-H1975 EGFR-L858R-T790M-C797S cells (Homo sapiens, UniProt P00533, C797S/L858R/T790M).
T1 construct: expressed in transfected cells; host or cells: NCI-H1975 EGFR-L858R-T790M-C797S (kept under hygromycin selection)
Description: Degradation activity on EGFR protein in NCI-H1975 EGFR-L858R-T790M-C797S cells, Method I (western blot, 72 h). It counts as cell-based. Particulars: 72 h incubation, EGFR protein relative to DMSO control. As for the experimental part:
Protein sample preparation: NCI-H1975 EGFR-L858R-T790M-C797S cells were cultured in an incubator at 37° C. with 5% CO2, and the culture medium was RPMI1640+10% FBS+100 μg/mL hygromycin. The cells in the logarithmic phase were collected, and the cell suspension was adjusted to an appropriate concentration with a hygromycin-free culture medium, plated on a 6-well plate at a density of 200000 cells/well and a volume of 2 mL, and cultured overnight in an incubator at 37° C. with 5% CO2. The next day, the compounds at different concentrations were added. DMSO control wells were provided, wherein the concentration of DMSO in all wells was 0.1%. The 6-well plate was cultured in an incubator at 37° C. with 5% CO2 for 72 h, and then 30 μL of RIPA lysates (Beyotime, Cat. P0013B) containing protease inhibitors (Beyotime, Cat. P0013B) were added. The mixtures were lysed on ice for 30 min. Centrifugation was carried out at 13000 rpm/min at 4° C. for 20 min to collect protein supernatant samples, and protein quantification was performed by the BCA method. Samples for western blot detection were prepared.
Western blot detection: 20 μg of protein samples were added to each well, subjected to polyacrylamide gel electrophoresis and transferred to a membrane, and then diluted anti-EGFR (CST, Cat. 4267S) and […] (Kangchen, Cat. KC-5G4) antibodies were added and incubated overnight at 4° C. After washing the membrane, diluted goat anti-rabbit (Licor, Cat. 926-32211) and goat anti-mouse (Licor, Cat. 926-68070) antibodies were added and incubated in the dark for 45 min. Scanning and detection at wavelengths of 700 nm and 800 nm were performed with a far-infrared imaging system (Odyssey).
According to formula (3), the expression level of EGFR protein in the cells relative to the DMSO control group was calculated after incubation with different concentrations of compounds. wherein EGFRcompound was the fluorescence value of EGFR protein after incubation with compounds, and EGFRvehicle was the fluorescence value of EGFR protein in the DMSO control group. Using the Origin 9.2 software, the drug concentration DC50 values when the expression level of EGFR protein was 50% relative to the DMSO control group were calculated.

For another series, the system named is A431 (EGFR-WT) cells. Description: Inhibitory activity on proliferation of A431 (EGFR-WT) cells (CTG, 72 h). It counts as cell-based. Particulars: Homo sapiens, A-431. The procedure, abridged:
as §1

In series [3] the test system is NCI-H1975 EGFR-L858R-T790M-C797S cells. Description: Inhibitory activity on proliferation of NCI-H1975 EGFR-L858R-T790M-C797S cells (CellTiter-Glo, 72 h). It counts as cell-based. As to conditions: Homo sapiens. On the procedure: NCI-H1975 EGFR-L858R-T790M-C797S cells were cultured in an incubator at 37° C. with 5% CO2, and the culture medium was RPMI1640+10% FBS+100 μg/mL hygromycin. The cells in the logarithmic phase were collected, and the cell suspension was adjusted to an appropriate concentration with a hygromycin-free culture medium, and then plated on a 96-well plate at a density of 1500 cells/well and a volume of 90 μL. 10 μL of the compounds at different concentrations were added, and a vehicle control group (cells plus DMSO) was provided, wherein the concentration of DMSO was 0.1%. The cell culture plate was cultured in an incubator at 37° C. with 5% CO2 for 72 hours. After the incubation was completed, according to operation instructions for a CellTiter-Glo kit (Promega, G7572), 50 μL of CTG solution, which was already pre-melted and equilibrated to room temperature, was added to each well, and the mixtures were uniformly mixed for 2 min using a microplate shaker. The plate was placed at room temperature for 10 min, and then […] signal values were measured using a microplate reader (Envision 2104). […] was processed based on formula (2), and using the GraphPad Prism 5.0 software and nonlinear regression model, S-shaped dose-survival curves were plotted, and IC50 values were calculated. wherein Vsample was the readout of the drug-treated group, and Vvehicle control was the readout of the control group.
In general terms: In ATP-based viability assays light output follows the ATP content of the culture.

Series [4] is described as follows: Pharmacokinetic test in mice. It counts as in vivo. Particulars: male, ICR, mouse, po, administration i.g. (10 mg/kg), plasma. In outline:
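Male ICR mice (20-25 g), fasted 12-14 h before dosing and fed 4 h after, received a single intravenous or intragastric dose. Orbital plasma sampled from 0 to 24 h (5 min-24 h points); LC-MS/MS quantitation for PK parameters and bioavailability.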

The mark [5] stands for this setting: read-out: IC50 (value in brackets).

T1 sequence (P00533 25-1210 T790M/C797S/L858R): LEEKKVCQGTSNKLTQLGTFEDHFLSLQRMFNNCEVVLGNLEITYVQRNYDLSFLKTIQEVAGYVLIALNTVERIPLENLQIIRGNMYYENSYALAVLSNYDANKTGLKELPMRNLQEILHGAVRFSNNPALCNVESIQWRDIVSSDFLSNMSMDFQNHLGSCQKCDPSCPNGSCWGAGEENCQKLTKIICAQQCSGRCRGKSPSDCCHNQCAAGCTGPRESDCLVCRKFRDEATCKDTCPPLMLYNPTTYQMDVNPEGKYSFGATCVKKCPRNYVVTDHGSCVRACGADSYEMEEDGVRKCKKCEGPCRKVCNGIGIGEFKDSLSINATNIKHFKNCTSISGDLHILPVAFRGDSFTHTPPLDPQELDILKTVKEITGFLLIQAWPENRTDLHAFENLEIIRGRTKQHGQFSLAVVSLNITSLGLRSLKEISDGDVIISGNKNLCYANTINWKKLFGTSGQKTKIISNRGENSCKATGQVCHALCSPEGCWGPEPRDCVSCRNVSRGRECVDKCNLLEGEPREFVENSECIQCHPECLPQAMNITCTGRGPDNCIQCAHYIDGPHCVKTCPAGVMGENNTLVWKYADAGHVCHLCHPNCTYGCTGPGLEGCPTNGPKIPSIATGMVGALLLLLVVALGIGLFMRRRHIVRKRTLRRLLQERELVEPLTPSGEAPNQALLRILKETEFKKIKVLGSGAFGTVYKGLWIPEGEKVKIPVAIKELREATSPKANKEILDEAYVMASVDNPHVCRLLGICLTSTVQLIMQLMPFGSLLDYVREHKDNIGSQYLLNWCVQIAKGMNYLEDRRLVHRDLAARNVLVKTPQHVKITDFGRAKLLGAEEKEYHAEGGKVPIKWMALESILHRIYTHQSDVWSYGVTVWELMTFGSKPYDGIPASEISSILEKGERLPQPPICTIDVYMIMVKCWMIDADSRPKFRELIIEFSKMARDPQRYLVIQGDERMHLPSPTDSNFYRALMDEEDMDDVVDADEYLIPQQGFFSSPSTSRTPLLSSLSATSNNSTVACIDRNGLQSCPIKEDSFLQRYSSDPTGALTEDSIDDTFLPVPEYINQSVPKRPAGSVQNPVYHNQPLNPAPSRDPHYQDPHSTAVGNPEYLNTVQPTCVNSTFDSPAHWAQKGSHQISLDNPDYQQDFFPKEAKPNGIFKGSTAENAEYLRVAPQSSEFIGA

For `COc1cc(N2CCC(N3CCN(CC4CCN(c5ccc6c(c5)C(=O)N(C5CCC(=O)NC5=O)C6=O)CC4)CC3)CC2)c(C2CC2)cc1Nc1ncc(Br)c(Nc2ccc3nccnc3c2P(C)(C)=O)n1` (centres unmarked) [Compound 2, 5-(4-((4-(1-(4-((5-bromo-4-((5-(dimethylphosphoryl)quinoxalin-6-yl)amino)pyrimidin-2-yl)amino)-2-cyclopropyl-5-methoxyphenyl)piperidin-4-yl)piperazin-1-yl)methyl)piperidin-1-yl)-2-(2,6-dioxopiperidin-3-yl)isoindoline-1,3-dione], the IC50 (as a rule, the concentration that inhibits the measured activity by half) is 100 to 500 nM in series [1] (read-out: IC50 (class symbol)); 151 nM in series [1] (setting [5]); not below 10000 nM in the series on A431 (EGFR-WT) cells; 200 to 500 nM in series [3] (read-out: IC50 (class symbol)); 299 nM in series [3] (read-out: IC50 (value)). In series [2], the DC50 (in general, the concentration at which degradation of the target reaches its halfway point) was less than 100 nM.
Take `COc1cc(N2CCC(CN3CCC4(CC3)CCN(c3ccc5c(c3)C(=O)N(C3CCC(=O)NC3=O)C5=O)CC4)CC2)c(-c2cnn(C)c2)cc1Nc1ncc(Br)c(Nc2ccc(-c3ccccc3)cc2P(C)(C)=O)n1` (centres unmarked) [Compound 37, 5-(9-((1-(4-((5-bromo-4-((3-(dimethylphosphoryl)-[1,1′-biphenyl]-4-yl)amino)pyrimidin-2-yl)amino)-5-methoxy-2-(1-methyl-1H-pyrazol-4-yl)phenyl)piperidin-4-yl)methyl)-3,9-diazaspiro[5.5]undecan-3-yl)-2-(2,6-dioxopiperidin-3-yl)isoindoline-1,3-dione]: the half-inhibitory concentration (IC50) in series [1] (read-out: IC50 (class symbol)) is less than 100 nM; in series [1] (setting [5]), 38 nM; in the series with A431 (EGFR-WT) cells it was not below 10000 nM; in series [3] (read-out: IC50 (class symbol)) it was less than 200 nM; in series [3] (read-out: IC50 (value)), 32 nM. Moreover, the AUC(0-t) (usually the area under the concentration-time curve up to a stated or last time point) in series [4] turned out to be 21700 ng·h/mL. In addition, the DC50 in series [2] is less than 100 nM.
For the compound `COc1cc(N2CCC(N3CCN(CC4CCN(c5ccc6c(c5)C(=O)N(C5CCC(=O)NC5=O)C6=O)CC4)CC3)CC2)c(-c2cnn(C)c2)cc1Nc1ncc(Br)c(Nc2ccc(-c3ccccc3F)cc2P(C)(C)=O)n1` (centres unmarked) [Compound 54, 5-(4-((4-(1-(4-((5-bromo-4-((3-(dimethylphosphoryl)-2′-fluoro-[1,1′-biphenyl]-4-yl)amino)pyrimidin-2-yl)amino)-5-methoxy-2-(1-methyl-1H-pyrazol-4-yl)phenyl)piperidin-4-yl)piperazin-1-yl)methyl)piperidin-1-yl)-2-(2,6-dioxopiperidin-3-yl)isoindoline-1,3-dione], the half-maximal inhibitory concentration (IC50) in series [1] (read-out: IC50 (class symbol)) was less than 100 nM; in series [1] (setting [5]) it was 69 nM; in the series on A431 (EGFR-WT) cells, not below 10000 nM; in series [3] (read-out: IC50 (class symbol)), less than 200 nM; in series [3] (read-out: IC50 (value)) it was 56 nM. The compound further showed an exposure AUC(0-t) in series [4] of 29800 ng·h/mL. The compound also showed a DC50 in series [2] of less than 100 nM.
Turning to `COc1cc(N2CCC3(CCN(CC4CCN(c5ccc6c(c5)C(=O)N(C5CCC(=O)NC5=O)C6=O)CC4)CC3)CC2)c(-c2cnn(C)c2)cc1Nc1ncc(Br)c(Nc2ccc(-c3ccccc3)cc2P(C)(C)=O)n1` (centres unmarked) [Compound 57, 5-(4-((9-(4-((5-bromo-4-((3-(dimethylphosphoryl)-[1,1′-biphenyl]-4-yl)amino)pyrimidin-2-yl)amino)-5-methoxy-2-(1-methyl-1H-pyrazol-4-yl)phenyl)-3,9-diazaspiro[5.5]undecan-3-yl)methyl)piperidin-1-yl)-2-(2,6-dioxopiperidin-3-yl)isoindoline-1,3-dione], the concentration for half-maximal inhibition (IC50) in series [1] (read-out: IC50 (class symbol)) was less than 100 nM; in series [1] (setting [5]), 21 nM; in the series with A431 (EGFR-WT) cells it was not below 10000 nM; in series [3] (read-out: IC50 (class symbol)), less than 200 nM; in series [3] (read-out: IC50 (value)), 65 nM. Moreover, the half-maximal degradation concentration (DC50) in series [2] was less than 100 nM.
For `COc1cc(N2CCC3(CCN(CC4CCN(c5ccc6c(c5)C(=O)N(C5CCC(=O)NC5=O)C6=O)CC4)CC3)CC2)c(-c2cnn(C)c2)cc1Nc1ncc(Cl)c(Nc2ccc(-c3ccccc3)cc2P(C)(C)=O)n1` (centres unmarked) [Compound 59, 5-(4-((9-(4-((5-chloro-4-((3-(dimethylphosphoryl)-[1,1′-biphenyl]-4-yl)amino)pyrimidin-2-yl)amino)-5-methoxy-2-(1-methyl-1H-pyrazol-4-yl)phenyl)-3,9-diazaspiro[5.5]undecan-3-yl)methyl)piperidin-1-yl)-2-(2,6-dioxopiperidin-3-yl)isoindoline-1,3-dione], the concentration for half-maximal inhibition (IC50) is less than 100 nM in series [1] (read-out: IC50 (class symbol)), 92 nM in series [1] (setting [5]) and not below 10000 nM in the series on A431 (EGFR-WT) cells. The area under the curve AUC(0-t) in series [4] amounted to 4460 ng·h/mL. The same compound came in with a DC50 in series [2] of less than 100 nM.
Consider `COc1cc(N2CCC(N3CCC4(CCCN(c5ccc6c(c5)C(=O)N(C5CCC(=O)NC5=O)C6=O)C4)CC3)CC2)c(-c2cnn(C)c2)cc1Nc1ncc(Cl)c(Nc2ccc(-c3ccccc3)cc2P(C)(C)=O)n1` (centres unmarked) [Compound 60, 5-(9-(1-(4-((5-chloro-4-((3-(dimethylphosphoryl)-[1,1′-biphenyl]-4-yl)amino)pyrimidin-2-yl)amino)-5-methoxy-2-(1-methyl-1H-pyrazol-4-yl)phenyl)piperidin-4-yl)-2,9-diazaspiro [5.5]undecan-2-yl)-2-(2,6-dioxopiperidin-3-yl)isoindoline-1,3-dione], for which the 50% inhibitory concentration (IC50) is less than 100 nM in series [1] (read-out: IC50 (class symbol)), 34 nM in series [1] (setting [5]) and not below 10000 nM in the series with A431 (EGFR-WT) cells. Further, the area under the curve AUC(0-t) in series [4] came out at 3200 ng·h/mL. In series [2], this compound yielded a DC50 of less than 100 nM.
As for `COc1cc(N2CCC(N3CCC4(CCCN(c5ccc6c(c5)C(=O)N(C5CCC(=O)NC5=O)C6=O)C4)CC3)CC2)c(-c2cnn(C)c2)cc1Nc1ncc(Br)c(Nc2ccc(-c3ccccc3)cc2P(C)(C)=O)n1` (centres unmarked) [Compound 62, 5-(9-(1-(4-((5-bromo-4-((3-(dimethylphosphoryl)-[1,1′-biphenyl]-4-yl)amino)pyrimidin-2-yl)amino)-5-methoxy-2-(1-methyl-1H-pyrazol-4-yl)phenyl)piperidin-4-yl)-2,9-diazaspiro[5.5]undecan-2-yl)-2-(2,6-dioxopiperidin-3-yl)isoindoline-1,3-dione], the IC50 in series [1] (read-out: IC50 (class symbol)) is less than 100 nM; in series [1] (setting [5]), 28 nM; with A431 (EGFR-WT) cells, not below 10000 nM. Further, the exposure AUC(0-t) in series [4] stood at 2310 ng·h/mL. The DC50 in series [2] is less than 100 nM.
Turning to `COc1cc(N2CCC(N3CCN(CC4CCN(c5ccc6c(c5)C(=O)N(C5CCC(=O)NC5=O)C6=O)CC4)CC3)CC2)c(-c2cnn(C)c2)cc1Nc1ncc(Br)c(Nc2ccc(-c3ccccc3)cc2P(C)(C)=O)n1` (centres unmarked) [Trifluoroacetate of compound 23, 5-(4-((4-(1-(4-((5-bromo-4-((3-(dimethylphosphoryl)-[1,1′-biphenyl]-4-yl)amino)pyrimidin-2-yl)amino)-5-methoxy-2-(1-methyl-1H-pyrazol-4-yl)phenyl)piperidin-4-yl)piperazin-1-yl)methyl)piperidin-1-yl)-2-(2,6-dioxopiperidin-3-yl)isoindoline-1,3-dione], the half-maximal inhibitory concentration (IC50) was less than 100 nM in series [1] (read-out: IC50 (class symbol)); 41 nM in series [1] (setting [5]); not below 10000 nM in the series on A431 (EGFR-WT) cells; less than 200 nM in series [3] (read-out: IC50 (class symbol)); 83 nM in series [3] (read-out: IC50 (value)). Further, the half-maximal degradation concentration (DC50) in series [2] was less than 100 nM.
